Structures can show the parent of a compound that is named as a salt.

This test deals with T1, synaptosomal serotonin uptake (Rattus norvegicus, UniProt P31652).
T1 construct: from tissue
T1 sequence (P31652 whole entry): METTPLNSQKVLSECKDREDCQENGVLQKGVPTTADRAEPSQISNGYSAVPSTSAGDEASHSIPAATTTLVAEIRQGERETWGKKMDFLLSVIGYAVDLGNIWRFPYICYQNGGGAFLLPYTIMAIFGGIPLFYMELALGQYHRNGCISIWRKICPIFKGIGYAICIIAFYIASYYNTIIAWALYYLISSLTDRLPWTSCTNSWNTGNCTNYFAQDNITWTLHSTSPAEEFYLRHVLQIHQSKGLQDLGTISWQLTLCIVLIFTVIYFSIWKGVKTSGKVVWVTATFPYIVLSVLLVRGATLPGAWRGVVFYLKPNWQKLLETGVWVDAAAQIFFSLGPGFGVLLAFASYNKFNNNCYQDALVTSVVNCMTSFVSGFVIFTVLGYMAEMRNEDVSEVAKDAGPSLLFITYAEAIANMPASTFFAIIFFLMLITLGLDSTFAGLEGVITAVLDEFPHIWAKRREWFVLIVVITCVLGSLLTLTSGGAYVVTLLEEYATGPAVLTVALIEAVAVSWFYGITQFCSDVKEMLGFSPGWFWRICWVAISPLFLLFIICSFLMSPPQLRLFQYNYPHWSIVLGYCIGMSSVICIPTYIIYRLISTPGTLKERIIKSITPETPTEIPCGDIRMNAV
Description: inhibition of synaptosomal reuptake of tritiated serotonin (5-HT inhibition assay). More on the design: key: *: Compounds designated with an asterisk are most preferred, based on abilities to inhibit synoptosomal serotonin uptake. Particulars: among compounds with IC50 less than 100 nM. The format is biochemical. The protocol: Determination of endogenous monoaminergic re-uptake inhibition values both for serotonin and norepinephrine was accomplished using test methods described by P. Skolnick, et al., Br. J. Pharmacology, (1985), 86, pp. 637-644; with only minor modifications. In vitro IC50 (nM) test values were determined for representative compounds of Formula I based on their inhibition of synaptosomal re-uptake of tritiated serotonin.
Compounds of the invention were tested for their ability to inhibit serotonin reuptake. Determination of endogenous monoaminergic reuptake inhibition values for serotonin was accomplished using test methods described by P. Skolnick et al., Br. J. Pharmacology (1985), 86, pp. 637-644; with only minor modifications.
In vitro IC50 (nM) test values were determined for representative compounds of Formula I based on their inhibition of synaptosomal reuptake of tritiated serotnin.
For `COc1cccnc1N1CCN(CCC2CSc3ccccc32)C(C)C1.Cl` (stereo not shown) [Example 6, 1-[2-(2,3-dihydro-benzo[b]thien-3-yl)ethyl]-4-(3-methoxy-2-pyridinyl)-2-methylpiperazine hydrochloride], the “asterisk designation: most preferred, based on ability to inhibit synaptosomal serotonin uptake” value is recorded as “*”.

For `COc1cccnc1N1CCN(CCCc2coc3ccc(F)cc23)CC1.Cl` [Example 20, 1-[3-(5-fluorobenzo[b]furan-3-yl)propyl]-4-(3-methoxy-2-pyridinyl)piperazine hydrochloride], the “asterisk designation: most preferred, based on ability to inhibit synaptosomal serotonin uptake” value is recorded as “*”. As for `COc1cccnc1N1CCN(CCCC2CSc3ccccc32)C(C)C1` (stereo not shown) [Example 7, hydrochloride], the entry is “*”; as for `COc1cccnc1N1CCN(CCCc2csc3ccccc23)C(C)C1.Cl` (stereo not shown) [Example 41, 1-[3-(benzo[b]thien-3-yl)propyl]-4-(3-methoxy-2-pyridinyl)-2-methylpiperazine hydrochloride], “*”. The same measure for `COc1cncnc1N1CCN(CCCc2csc3ccccc23)CC1.Cl` [Example 59, 1-[3-(benzo[b]thien-3-yl)propyl]-4-(5-methoxy-4-pyrimidinyl)piperazine hydrochloride]: “*”; for `COc1cccnc1N1CCN(CCc2coc3ccccc23)CC1.Cl` [Example 33, 1-[2-(benzo[b]furan-3-yl)ethyl]-4-(3-methoxy-2-pyridinyl)piperazine hydrochloride]: “*”. For the compound `COc1cccnc1N1CCN(CCCc2csc3ccccc23)CC1.O=C(O)/C=C/C(=O)O` [Example 56, 1-[3-(benzo[b]thien-3-yl)propyl]-4-(3-methoxy-2-pyridinyl)piperazine fumarate], the “asterisk designation: most preferred, based on ability to inhibit synaptosomal serotonin uptake” value is “*”. In the case of `COc1cncnc1N1CCN(CCCc2csc3ccccc23)CC1C.Cl` (stereo not shown) [Example 51, 1-[3-(benzo[b]thien-3-yl)propyl]-4-(5-methoxy-4-pyrimidinyl)-3-methylpiperazine hydrochloride], the “asterisk designation: most preferred, based on ability to inhibit synaptosomal serotonin uptake” value was “*”. In the case of `COc1cncnc1N1CCN(CCCc2csc3ccc(F)cc23)CC1C.Cl` (stereo not shown) [Example 55, 1-[3-(5-fluorobenzo[b]thien-3-yl)propyl]-4-(5-methoxy-4-pyrimidinyl)-3-methylpiperazine hydrochloride], the “asterisk designation: most preferred, based on ability to inhibit synaptosomal serotonin uptake” value is recorded as “*”. With `COc1cccnc1N1CCN(CCCc2coc3ccccc23)CC1.Cl` [Example 31, 1-[3-(benzo[b]furan-3-yl)propyl]-4-(3-methoxy-2-pyridinyl)piperazine hydrochloride], the “asterisk designation: most preferred, based on ability to inhibit synaptosomal serotonin uptake” value is given as “*”. As for `COc1cncnc1N1CCN(CCCc2csc3ccc(C#N)cc23)CC1.Cl` [Example 65, 1-[3-(5-cyanobenzo[b]thien-3-yl)propyl]-4-(5-methoxy-4-pyrimidinyl)piperazine hydrochloride], the entry is “*”; as for `COc1cc(Cl)cnc1N1CCN(CCCc2csc3ccccc23)C(C)C1.Cl` (stereo not shown) [Example 60, 1-[3-(benzo[b]thien-3-yl)propyl]-4-(5-chloro-3-methoxy-2-pyridinyl)-2-methylpiperazine hydrochloride], “*”. In the case of `COc1cccnc1N1CCN(CCc2csc3ccccc23)C(C)C1.Cl` (stereo not shown) [Example 58, 1-[2-(benzo[b]thien-3-yl)ethyl]-4-(3-methoxy-2-pyridinyl)-2-methylpiperazine hydrochloride], the “asterisk designation: most preferred, based on ability to inhibit synaptosomal serotonin uptake” value was “*”. As for `COc1cncnc1N1CCN(CCCc2coc3ccccc23)C(C)C1` (stereo not shown) [Example 32, 1-[3-(benzo[b]furan-3-yl)propyl]-4-(5-methoxy-4-pyrimidinyl-2-methylpiperazine hydrochloride], the “asterisk designation: most preferred, based on ability to inhibit synaptosomal serotonin uptake” value was “*”.

For `COc1cccnc1N1CCN(CCCc2coc3ccc(Cl)cc23)CC1.Cl` [Example 25, 1-[3-(5-chlorobenzo[b]furan-3-yl)propyl]-4-(3-methoxy-2-pyridinyl)piperazine hydrochloride], the “asterisk designation: most preferred, based on ability to inhibit synaptosomal serotonin uptake” value is “*”. Regarding `COc1cncnc1N1CCN(CCCc2csc3ccccc23)C(C)C1.Cl` (stereo not shown) [Example 50, 1-[3-(benzo[b]thien-3-yl)propyl]-4-(5-methoxy-4-pyrimidinyl)-2-methylpiperazine hydrochloride], the “asterisk designation: most preferred, based on ability to inhibit synaptosomal serotonin uptake” value was “*”. Turning to `COc1cncnc1N1CCN(CCCc2coc3ccc(C)cc23)C(C)C1.Cl` (stereo not shown) [Example 30, 1-[3-(5-methylbenzo[b]furan-3-yl)propyl]-4-(5-methoxy-4-pyrimidinyl)-2-methylpiperazine hydrochloride], the “asterisk designation: most preferred, based on ability to inhibit synaptosomal serotonin uptake” value was “*”.

Regarding `COc1cncnc1N1CCN(CCCc2csc3ccc(F)cc23)C(C)C1.Cl` (stereo not shown) [Example 63, 1-[3-(5-fluorobenzo[b]thien-3-yl)propyl]-4-(5-methoxy-4-pyrimidinyl)-2-methylpiperazine hydrochloride], the “asterisk designation: most preferred, based on ability to inhibit synaptosomal serotonin uptake” value is recorded as “*”. Take `COc1cncnc1N1CCN(CCCc2csc3ccc(F)cc23)CC1.Cl` [Example 52, 1-[3-(5-fluorobenzo[b]thien-3-yl)propyl]-4-(5-methoxy-4-pyrimidinyl)piperazine hydrochloride]: the “asterisk designation: most preferred, based on ability to inhibit synaptosomal serotonin uptake” value was “*”. For `COc1cncnc1N1CCN(CCc2csc3ccccc23)CC1C.Cl` (stereo not shown) [Example 64, 1-[2-(benzo[b]thien-3-yl)ethyl]-4-(5-methoxy-4-pyrimidinyl)-3-methylpiperazine hydrochloride], the “asterisk designation: most preferred, based on ability to inhibit synaptosomal serotonin uptake” value was “*”. Regarding `COc1cncnc1N1CCN(CCCc2coc3ccccc23)CC1C.Cl` (stereo not shown) [Example 28, 1-[3-(benzo[b]furan-3-yl)propyl]-4-(5-methoxy-4-pyrimidinyl)-3-methylpiperazine hydrochloride], the “asterisk designation: most preferred, based on ability to inhibit synaptosomal serotonin uptake” value is on record as “*”. For the compound `COc1cccnc1N1CCN(CCc2csc3ccccc23)CC1.Cl` [Example 57, 1-[2-(benzo[b]thien-3-yl)ethyl]-4-(3-methoxy-2-pyridinyl)piperazine hydrochloride], the “asterisk designation: most preferred, based on ability to inhibit synaptosomal serotonin uptake” value was “*”. On to `COc1cccnc1N1CCN(CCC2CSc3ccccc32)CC1.Cl` (stereo not shown) [Example 17, 1-[2-(2,3-dihydro-benzo[b]thien-3-yl)ethyl]-4-(3-methoxy-2-pyridinyl)piperazine hydrochloride], for which the “asterisk designation: most preferred, based on ability to inhibit synaptosomal serotonin uptake” value is “*”. With `COc1cccnc1N1CCN(CCCc2coc3ccc(C)cc23)CC1.Cl` [Example 29, 1-[3-(5-methylbenzo[b]furan-3-yl)propyl]-4-(3-methoxy-2-pyridinyl)piperazine hydrochloride], the “asterisk designation: most preferred, based on ability to inhibit synaptosomal serotonin uptake” value is on record as “*”. Consider `COc1cncnc1N1CCN(CCCc2coc3ccc(Cl)cc23)C(C)C1.Cl` (stereo not shown) [Example 27, 1-[3-(5-chlorobenzo[b]furan-3-yl)propyl]-4-(5-methoxy-4-pyrimidinyl)-2-methylpiperazine hydrochloride], for which the “asterisk designation: most preferred, based on ability to inhibit synaptosomal serotonin uptake” value was “*”.

The values above are taken from US5763444A, “Antidepressant 1-arylalkyl-4-(alkoxy pyridinyl)-and 4-(alkoxypyrimidinyl) piperazine derivatives” (Bristol-Myers Squibb Company, priority 1996, dated 1998).
